Assay results reported in patent publication US6028061A, “Angiogenesis inhibitors and use thereof” (Children's Medical Center Corp, priority 1998, dated 2000).
Entries after “also recorded” stand apart in the source; their conditions may differ.

How the values were obtained:
[1] = tested on: FGF-2 mitogenic activity in F32 cells; test: FGF-2 mitogenicity assay in F32 cells, absence of added heparin ([3H]-thymidine incorporation; stimulation of FGF-2 activity); format: cell-based; settings: for [3H]-thymidine incorporation, controls alone: F32 cells, heparin (alone) and FGF-2 (alone) controls
Procedure: (§1) Assay of FGF-2 mitogenic activity, FGF-2 mitogenicity assays were performed in F32 cells that express FGF-receptor 1 (FGF-R1)(16) but no detectable levels of heparan sulfate proteoglycans (17). […] Tested glycosaminoglycans were added in concentrations ranging from 1-5000 ng/ml. Proliferation was measured after 40 h incubation in 200 μl medium (RPM1 1640, 10% heat-inactivated newborn calf serum) in the presence of a 1 μCi/well pulse of [^3 H]-thymidine during the final 6 h of the incubation. Radioactivity incorporated into DNA was quantified by scintillation counting, MTT, 3-[4,5-dimethylthiazol-2-yl]-2,5-diphenyl tetrazolium bromide (Thiazole blue), used to determine cell viability, was from Sigma Chemical (St. Louis, Mo.).
(§2) Influence of glycosaminoglycans and their derivatives on FGF-2 mitogenic activity. The direct influence of acharan sulfate and its derivative on FGF-2 mitogenic activity was measured in the absence of added heparin. […] The effect of acharan sulfate on cell viability was assessed by measuring the formation of a chromogen from MTT, a tetrazolium dye that is converted solely by living cells (18). […] Thus, the inhibition of mitogenicity is not due to toxicity leading to reduced cell number.

[2] = target: FGF-2; test: Isothermal titration calorimetry of glycosaminoglycan binding to FGF-2; settings: for Kd / n, average number of FGF-2 molecules occupying a single glycosaminoglycan chain (stoichiometry): 50 mM sodium phosphate pH 7.4, 100 mM NaCl, 25° C; for FGF-2 binding (in words): isothermal titration calorimetry
Procedure: Interaction of glycosaminoglycans and their derivatives with FGF-2. Isothermal titration calorimetry was performed in 50 mM sodium phosphate buffer, pH 7.4, containing 100 mM sodium chloride at 25° C. as previously described (15).
Determination of the FGF-2 binding affinity of glycosaminoglycans and their derivatives. Isothermal titration calorimetry was performed with heparin oligosaccharides, herapin, acharan sulfate and N-sulfoacharan sulfate. The heat of interaction (ΔH) is directly measured in this experiment. From this heat of interaction the Kd, and n (stoichiometry) of interaction can be deduced. The minimum FGF-2 binding site is a tetra- or hexasaccharide. […] The n value is consistent with the molecular weight of each ligand (Table 2).

[3] = tested on: FGF-2 mitogenic activity in F32 cells; test: FGF-2 mitogenicity assay in F32 cells, presence of 10 ng/ml heparin ([3H]-thymidine incorporation; inhibition of heparin-mediated activity); format: cell-based; settings: for FGF-2 mitogenicity in the presence of heparin (in words): 10 ng/ml heparin, 150 pM FGF-2, 40 h
Procedure: as §1, §2

[4] = tested on: F32 cells; test: MTT cell viability assay; format: cell-based; settings: 40 h incubation, same concentrations as in the mitogenicity assays
Procedure: as §1, §2

[5] = tested on: FGF-2; settings: cited from earlier work

Row | Substance | [3H]-thymidine incorporation, controls alone [1] | Kd [2] [nM] | n, average number of FGF-2 molecules occupying a single glycosaminoglycan chain (stoichiometry) [2] | FGF-2 binding (in words) [2] | FGF-2 mitogenicity in the presence of heparin (in words) [3] | also measured
1 | FGF-2: growth factor, control alone in F32 mitogenicity assay | ~ 750 cpm |  |  |  |  | 
2 | →4)GlcNp2S(1→4)IdoAp2S(1→ [N-sulfoacharan sulfate] |  | 90 | 4.4 | bind FGF-2 most tightly; also recorded: tightly bound multiple FGF-2 molecules | no discernible effect on FGF-2 mitogenicity induced by heparin | FGF-2 mitogenic activity (in words) ([1]; absence of added heparin): about the same activity as the syndecan-1 ectodomain; also recorded: minimal mitogenic activity compared with that of heparin; activity relative to heparin, fold less active ([1]; absence of added heparin, on a weight basis): about 150 fold; FGF-2 mitogenicity in the presence of heparin (in words) ([3]; listed as N-sulfoacharan): failed to further stimulate FGF-2 mitogenicity
3 | Low molecular weight heparin [reference compound] |  | 36 | 3.6 |  |  | 
4 | ΔUAp2S(1→[4)GlcNp2S6S(1→4)IdoAp2S(→]m=1-5) [dodecasaccharide, reference compound] |  |  | 1.8 |  |  | 
5 | →4)GlcNpAc(1→4)IdoAp2S(1→ [Acharan sulfate] |  | 4500 | 13.4 | binds very poorly; also recorded: very weak | markedly decreased the mitogenic activity in a concentration dependent manner; also recorded: inhibited FGF-2 mitogenicity in the presence of heparin | Kd ([2]; listed as acharan sulfate): > 4000 nM; IC50 of inhibition of FGF-2 mitogenicity ([3]; in the presence of 10 ng/ml heparin): ~ 400 ng/ml; cell viability (number of living cells, MTT) [4]: no reduction in the number of living cells
6 | Heparin [reference compound] | ~ 750 cpm | 36 |  | bind FGF-2 most tightly |  | mitogenic activity (literature, in words) [5]: known to enhance the activity of FGF-2
